ChEMBL document CHEMBL1130235, “4-hydroxy-5,6-dihydropyrones. 2. Potent non-peptide inhibitors of HIV protease” (J Med Chem, 1997)

Tests used:
[1] = biological target: T1, Human immunodeficiency virus type 1 protease (Human immunodeficiency virus 1, UniProt Q72874); assay: Inhibitory activity against HIV protease
[2] = biological target: T1, Human immunodeficiency virus type 1 protease; assay: Inhibitory activity against HIV protease at pH 6.2
[3] = biological target: T1, Human immunodeficiency virus type 1 protease; assay: Inhibitory activity against HIV protease at pH 4.7

Compound	IC50 [1] [nM]	IC50 [2] [nM]	IC50 [3] [nM]
NC(=O)CCCC1(c2ccccc2)CC(=O)C(SCCc2ccccc2)=C(O)O1 (stereo not drawn)	1300		
CC(C)c1ccc(C(C)C)c(SC2=C(O)OC(CCc3ccccc3)(c3ccccc3)CC2=O)c1 (stereo not drawn)	14		
CC(C)CC1(c2ccccc2)CC(=O)C(SCCc2ccccc2)=C(O)O1 (stereo not drawn)	1200		
CCC(C)c1ccccc1SC1=C(O)OC(CCc2ccccc2)(c2ccccc2)CC1=O (stereo not drawn)	10		
CC(C)CC1(c2ccccc2)CC(=O)C(SCc2ccccc2)=C(O)O1 (stereo not drawn)	440		
O=C1CC(CCc2ccccc2)(c2ccccc2)OC(O)=C1Sc1ccccc1C1CCCCC1 (stereo not drawn)	32		
Cc1ccc(C(C)C)c(SC2=C(O)OC(CCc3ccccc3)(c3ccccc3)CC2=O)c1 (stereo not drawn)		79	7
Cc1ccc(C(C)C)c(SC2=C(O)OC(c3ccccc3)(c3ccccc3)CC2=O)c1	38		
CC(C)c1ccc(C(C)(C)C)c(SC2=C(O)OC(CCc3ccccc3)(c3ccccc3)CC2=O)c1 (stereo not drawn)	47		
CCCCC1(c2ccccc2)CC(=O)C(SCCc2ccccc2)=C(O)O1 (stereo not drawn)	400		
O=C1CC2(CCCc3ccccc32)OC(O)=C1SCCc1ccccc1 (stereo not drawn)	1300		
CC(C)CCCC1(c2ccccc2)CC(=O)C(SCc2ccccc2)=C(O)O1 (stereo not drawn)	183		
CN(CC1(c2ccccc2)CC(=O)C(SCCc2ccccc2)=C(O)O1)c1ccccc1 (stereo not drawn)	2280		
O=C1CC(CC2CCCC2)(c2ccccc2)OC(O)=C1SCc1ccccc1 (stereo not drawn)	88		
CC(C)CCC1(c2ccccc2)CC(=O)C(SCCc2ccccc2)=C(O)O1 (stereo not drawn)	96		
CCCCC1(c2ccccc2)CC(=O)C(SCc2ccccc2)=C(O)O1 (stereo not drawn)	270		
CC(C)c1ccc(C(C)C)c(SC2=C(O)OC(c3ccccc3)(c3ccccc3)CC2=O)c1	119		
CC(C)(C)c1ccccc1SC1=C(O)OC(CCc2ccccc2)(c2ccccc2)CC1=O (stereo not drawn)		104	3
O=C1CC(COc2ccccc2)(c2ccccc2)OC(O)=C1SCc1ccccc1 (stereo not drawn)	172		
O=C1CC(c2ccccc2)(c2ccccc2)OC(O)=C1SCCc1ccccc1	152		
CC(C)c1ccccc1SC1=C(O)OC(CCc2ccccc2)(c2ccccc2)CC1=O (stereo not drawn)		97	14

Compound	IC50 [1] [nM]	IC50 [2] [nM]	IC50 [3] [nM]
CC(C)CCC1(c2ccccc2)CC(=O)C(SCc2ccccc2)=C(O)O1 (stereo not drawn)	98		
CC(C)c1ccccc1SC1=C(O)OC(c2ccccc2)(c2ccccc2)CC1=O	23		
O=C1CC(c2ccccc2)OC(O)=C1SCc1ccccc1 (stereo not drawn)	8900		
O=C(O)CCCCC1(c2ccccc2)CC(=O)C(SCCc2ccccc2)=C(O)O1 (stereo not drawn)	5		
CCC(C)c1ccccc1SC1=C(O)OC(c2ccccc2)(c2ccccc2)CC1=O (stereo not drawn)	17		
CCCCCCC1(c2ccccc2)CC(=O)C(SCc2ccccc2)=C(O)O1 (stereo not drawn)	180		
NC(=O)CCCCC1(c2ccccc2)CC(=O)C(SCCc2ccccc2)=C(O)O1 (stereo not drawn)	338		
CCCC1(c2ccccc2)CC(=O)C(SCCc2ccccc2)=C(O)O1 (stereo not drawn)	5100		
O=C1CC2(CCc3ccccc32)OC(O)=C1SCc1ccccc1 (stereo not drawn)	11800		
O=C1CC(c2ccccc2)(c2ccccc2)OC(O)=C1SCc1ccccc1	262		
Cc1ccc(C(C)C)c(Sc2c(O)cc(-c3ccccc3)oc2=O)c1			17
O=C1CC(CC2CCCCC2)(c2ccccc2)OC(O)=C1SCc1ccccc1 (stereo not drawn)	137		
O=C(O)CCCC1(c2ccccc2)CC(=O)C(SCCc2ccccc2)=C(O)O1 (stereo not drawn)	270		
CCCCCCC1(c2ccccc2)CC(=O)C(SCCc2ccccc2)=C(O)O1 (stereo not drawn)	112		
Cc1ccc(C(C)C)c(SC2=C(O)O[C@@](CCc3ccccc3)(c3ccccc3)CC2=O)c1	130		
Cc1ccc(C(C)C)c(SC2=C(O)O[C@](CCc3ccccc3)(c3ccccc3)CC2=O)c1	6		
CC(C)(C)c1ccccc1Sc1c(O)cc(-c2ccccc2)oc1=O			17
O=c1cc(-c2ccccc2)oc(O)c1Sc1ccccc1	3100		
Cc1ccc(C(C)(C)C)c(SC2=C(O)OC(c3ccccc3)(c3ccccc3)CC2=O)c1	12		
O=C1CC(c2ccccc2)OC(O)=C1SCCc1ccccc1 (stereo not drawn)	2100		
O=C1CC(CC2CCCC2)(c2ccccc2)OC(O)=C1SCCc1ccccc1 (stereo not drawn)	510		

Compound	IC50 [1] [nM]	IC50 [2] [nM]	IC50 [3] [nM]
O=C1CC2(CCCc3ccccc32)OC(O)=C1SCc1ccccc1 (stereo not drawn)	2300		
CCCC1(c2ccccc2)CC(=O)C(SCc2ccccc2)=C(O)O1 (stereo not drawn)	290		
Cc1ccccc1SC1=C(O)OC(c2ccccc2)(c2ccccc2)CC1=O	388		
O=C1CC(c2ccccc2)(c2ccccc2)OC(O)=C1Sc1ccccc1C1CCCCC1	127		
O=C1CC(CCc2ccccc2)(c2ccccc2)OC(O)=C1Sc1ccccc1 (stereo not drawn)	130		
Cc1ccccc1SC1=C(O)OC(CCc2ccccc2)(c2ccccc2)CC1=O (stereo not drawn)	73		
O=C(O)CCC1(c2ccccc2)CC(=O)C(SCCc2ccccc2)=C(O)O1 (stereo not drawn)	1200		
O=C1CC(CCCCO)(c2ccccc2)OC(O)=C1SCc1ccccc1 (stereo not drawn)	1260		
Cc1ccc(C(C)(C)C)c(Sc2c(O)cc(-c3ccccc3)oc2=O)c1		282	28
O=C1CC(CCc2ccccc2)(c2ccccc2)OC(O)=C1SCCc1ccccc1 (stereo not drawn)	51		
CCCCCC1(c2ccccc2)CC(=O)C(SCCc2ccccc2)=C(O)O1 (stereo not drawn)	84		
O=C1CC(c2ccccc2)(c2ccccc2)OC(O)=C1Sc1ccccc1	110		
O=C1CC(c2ccccc2)(c2ccccc2)OC(O)=C1Sc1ccccc1C1CCCC1	14		
CC(C)(C)c1ccccc1SC1=C(O)OC(c2ccccc2)(c2ccccc2)CC1=O	49		
Cc1ccc(C(C)(C)C)c(SC2=C(O)OC(CCc3ccccc3)(c3ccccc3)CC2=O)c1 (stereo not drawn)		35	10
CC(C)CCCC1(c2ccccc2)CC(=O)C(SCCc2ccccc2)=C(O)O1 (stereo not drawn)	155		
O=C1CC(c2ccccc2)(c2ccncc2)OC(O)=C1SCCc1ccccc1 (stereo not drawn)	790		
O=C1CC(CCc2ccccc2)(c2ccccc2)OC(O)=C1SCc1ccccc1 (stereo not drawn)	60		
CC(C)CCC1(c2ccccc2)CC(=O)C(Sc2ccccc2)=C(O)O1 (stereo not drawn)	1400		
CCCCCC1(c2ccccc2)CC(=O)C(SCc2ccccc2)=C(O)O1 (stereo in doubt; 4b)	124		
CCCCCC1(c2ccccc2)CC(=O)C(SCc2ccccc2)=C(O)O1 (stereo in doubt; 15b)	327		
